Several values for one entry are separate records, joined by “and”; a condition that tells them apart may be missing. Equal entries are not always repeated.
What was measured:
Type in all cases: toxicity, cell-based
[1] = system: HEK-293T; test: Incucyte cell viability with HEK293T; settings: human, 10 µM, compound concentration 10 uM
[2] = system: Fibroblast; test: Incucyte cell viability with human fibroblast; settings: 10 µM, compound concentration 10 uM
[3] = system: U2OS; test: Incucyte cell viability with U2OS; settings: human, 10 µM, compound concentration 10 uM
[4] = 6 h, replicate number 1, timepoint 6 hours
[5] = 6 h, replicate number 2, timepoint 6 hours
[6] = 12 h, replicate number 1, timepoint 12 hours
[7] = 12 h, replicate number 2, timepoint 12 hours
[8] = 18 h, replicate number 1, timepoint 18 hours
[9] = 18 h, replicate number 2, timepoint 18 hours
[10] = 24 h, replicate number 1, timepoint 24 hours
[11] = 24 h, replicate number 2, timepoint 24 hours
[12] = 0 h, replicate number 1, timepoint 0 hours
[13] = 0 h, replicate number 2, timepoint 0 hours
Also: unitless GR value; below 1 slowed growth and below 0 cell loss.

Structure (SMILES) | Growth Rate [1, 4] | Growth Rate [1, 6] | Growth Rate [1, 7] | Growth Rate [1, 8] | Growth Rate [1, 9] | Growth Rate [1, 10] | Growth Rate [1, 11] | Growth Rate [2, 6] | Growth Rate [2, 9] | Growth Rate [2, 10] | Growth Rate [2, 11] | Growth Rate [3, 12] | Growth Rate [3, 4] | Growth Rate [3, 6] | Growth Rate [3, 7] | Growth Rate [3, 8] | Growth Rate [3, 9] | Growth Rate [3, 10] | Growth Rate [1, 12] | Growth Rate [2, 13] | other results
C[C@@](Cc1c[nH]c2ccccc12)(NC(=O)Nc1ccc([N+](=O)[O-])cc1)C(=O)NCC1(c2ccccn2)CCCCC1 | -0.16 | -0.39 | -0.14 | -0.33 | -0.15 | -0.26 | -0.13 | -0.66 | -0.53 | -0.6 | -0.51 | 0.29 | 0.28 | -0.03 | -0.2 | -0.21 | -0.3 | -0.26 |  |  | Growth Rate [1, 5]: -0.01; Growth Rate [2, 4]: -0.69; Growth Rate [2, 5]: -0.88; Growth Rate [2, 7]: -0.59; Growth Rate [2, 8]: -0.63; Growth Rate [3, 5]: 0.12; Growth Rate [3, 11]: -0.21
CC(C)(C)c1ccc(CSc2cnn(C(C)(C)C)c(=O)c2Cl)cc1 [PYRIDABEN] | -0.14 | 0.01 | -0.01 | 0.13 | 0.2 | 0.1 | 0.22 | -0.26 | 0.71 | -0.12 | 0.08 |  |  |  |  | 0.62 | 0.92 | 0.86 | 0.63 | -0.26 | Growth Rate [1, 13]: 0.94; Growth Rate [1, 5]: -0.1; Growth Rate [2, 4]: -0.33; Growth Rate [2, 5]: 0.56; Growth Rate [2, 7]: 0.81; Growth Rate [2, 8]: -0.13; Growth Rate [3, 13]: -1; Growth Rate [3, 11]: 0.96
Cc1ccc2c(c1CCC(=O)O)CC[C@@H](NS(=O)(=O)c1ccc(Cl)cc1)C2 [TERUTROBAN] | 0.87 |  |  | 0.99 | 0.97 | 0.94 |  |  |  | 0.83 |  | -0.59 |  |  |  |  |  |  | 0.06 | 0 | Growth Rate [1, 13]: 0.31; Growth Rate [2, 12]: -0.56; Growth Rate [3, 13]: -1
CC1(COc2ccc3c(c2)ncn3-c2ccc3cccc(N4CCC(N)CC4)c3n2)COC1 [CRENOLANIB] | -0.46 | -0.32 | -0.23 | -0.28 | -0.21 | -0.22 | -0.19 |  |  |  |  |  |  |  |  | 0.87 | 0.92 | 0.54 | -0.26 | -0.75 | Growth Rate [1, 13]: -0.11; Growth Rate [1, 5]: -0.5; Growth Rate [2, 12]: -0.8; Growth Rate [3, 11]: 0.8
COc1cc2nc(N(C)CCCNC(=O)C3CCCO3)nc(N)c2cc1OC.Cl (stereo unspecified) [ALFUZOSIN HYDROCHLORIDE] | 0.54 |  |  | 0.99 |  | 0.99 | 0.96 |  | 0.61 | 0.72 | 0.47 | -0.55 | 0.24 | 0.43 | 0.97 | 0.72 | 0.93 | 0.81 | 0.21 | 0.06 | Growth Rate [1, 13]: 0.19; Growth Rate [2, 12]: 0.72; Growth Rate [2, 5]: 0.11; Growth Rate [2, 7]: 0.51; Growth Rate [3, 5]: 0.85
CC(=O)NCC(=O)N1[C@@H]2CC[C@H]1c1ccc(Nc3ncc(C(F)(F)F)c(NC4CCC4)n3)cc12 [PF-03814735] | -0.73 | -0.54 | -0.65 | -0.45 | -0.48 | -0.31 | -0.41 | 0.58 | 0.79 | 0.26 | 0.62 | -0.24 |  | 0.23 | 0.56 | 0.36 | 0.22 | 0.28 |  | -0.37 | Growth Rate [1, 5]: -0.88; Growth Rate [2, 12]: -0.04; Growth Rate [2, 8]: 0.72; Growth Rate [3, 11]: 0.12
Cl.NCCc1ccc(O)c(O)c1 [DOPAMINE HYDROCHLORIDE] | 0.72 | 0.97 |  |  |  |  |  |  | 0.95 |  |  | 0.15 | 0.57 | 0.79 |  | 0.8 |  | 0.95 | 0.96 | 0.55 | Growth Rate [2, 12]: 0.12; Growth Rate [2, 5]: 0.26; Growth Rate [2, 7]: 0.67
COC(=O)[C@H]1[C@H]2C[C@H]3c4[nH]c5ccccc5c4CCN3C[C@H]2CC[C@@H]1O.Cl [RAUWOLSCINE HYDROCHLORIDE] | 0.76 | 0.95 |  |  |  |  |  | 0.59 |  |  |  | -0.57 | 0.53 | 0.61 | 0.89 | 0.79 | 0.88 |  | 0.51 | -0.08 | Growth Rate [1, 13]: 0.67; Growth Rate [2, 4]: 0.83; Growth Rate [3, 11]: 0.98
CO/C1=C/C(C)=C\[C@@H](C)[C@@H](O)[C@@H](C)C/C(C)=C\C=C/[C@H](OC)C([C@@H](C)[C@@H](O)[C@H](C)[C@@]2(O)C[C@@H](O)[C@H](C)[C@@H](C(C)C)O2)OC1=O (stereo partly specified) | -0.8 | -0.61 | -0.69 | -0.45 | -0.5 | -0.36 | -0.38 | -0.79 | -0.46 | -0.61 | -0.4 |  | 0.5 | 0.37 | 0.39 | 0.23 | 0.18 | 0.14 |  | -0.31 | Growth Rate [1, 5]: -0.9; Growth Rate [2, 12]: 0.09; Growth Rate [2, 4]: -0.77; Growth Rate [2, 5]: -0.59; Growth Rate [2, 7]: -0.56; Growth Rate [2, 8]: -0.72; Growth Rate [3, 5]: 0.63; Growth Rate [3, 11]: 0.12
N#Cc1cc2c(OCC(O)CN3CCN(C(c4ccccc4)c4ccccc4)CC3)cccc2[nH]1 (racemic) |  | 0.54 | 0.62 | 0.32 | 0.26 | 0.27 | 0.29 | 0.52 | 0.91 | 0.24 |  | -0.56 |  |  |  |  |  |  | 0.77 | 0.94 | Growth Rate [2, 12]: -0.11; Growth Rate [2, 8]: -0.05; Growth Rate [3, 13]: -1
COc1cc(Nc2nc(C)cc(-c3cnn4nc(OC)ccc34)n2)cc(C(F)(F)F)c1 |  |  | 0.84 |  | 0.94 |  | 0.85 |  | 0.67 and 0.25 |  | 0.58 and 0.24 | 0.11 | 0.24 | 0.61 and 0.48 | 1 and 0.46 | 0.85 and 0.45 | 0.62 and 0.36 | 0.62 and 0.35 | 0.76 |  | Growth Rate [1, 5]: 0.89; Growth Rate [3, 13]: 0.84; Growth Rate [3, 5]: 0.89 and 0.77; Growth Rate [3, 11]: 0.76 and 0.27
CCc1nnc(NS(=O)(=O)c2ccc(NC(=S)NC(=O)/C=C/c3ccc(F)cc3)cc2)s1 | 0.64 | 0.53 |  | 0.58 |  | 0.67 | 0.73 | 0.7 | 0.53 | 0.62 | 0.61 | 0.07 | 0.55 | 0.77 |  | 0.81 | 0.86 | 0.86 |  | -0.01 | Growth Rate [1, 13]: 0.59; Growth Rate [2, 5]: 0.82; Growth Rate [2, 7]: 0.53; Growth Rate [3, 13]: -0.11
CCN1C(=CC(C)=O)Sc2ccc(OC)cc21 | 0.17 | 0.45 |  | 0.69 |  | 0.72 |  | 0.45 |  | 0.7 |  | -0.04 | 0.65 | 0.7 | 0.88 | 0.63 |  | 0.89 |  | 0.29 | Growth Rate [1, 13]: -1; Growth Rate [2, 4]: -0.68; Growth Rate [2, 8]: 0.69; Growth Rate [3, 13]: -0.03
